Legend:
L1210 leukemia = experiment: In vivo activity of the platinum complexes against L1210 leukemia of the mouse; set-up: optimum Dose (greatest antitumoral effect), L1210: unit not given here; conditions: for T/C % L1210 (at optimum dose): mean survival time vs untreated control; for cytostatic activity in the "in vivo" test using the L1210 tumor cell line: in words
Description: c) In vivo activity of the platinum complexes against L1210 leukemia of the mouse
Ascitic fluid is removed under sterile conditions from DBA2 mice (female, 18-20 g) 7 days after implantation. The ascites is washed three times with PBS, counted, and adjusted to a cell number of 10^6 in 0.2 ml of PBS.
10^6 cells, suspended in 0.2 ml of PBS, are subsequently injected intraperitoneally into DBF1 mice (female, 18-20 g). 6 animals per group are employed for each substance concentration or as control.
Determination of the antitumoral activity
a) The animals are weighed on days 1 and 5 after injection of the test substance. A weight loss of more than 20% on day 5 is regarded as an indicator of a toxic substance action.
b) At the end of the experiment (death of all animals or surviving animals on day 60), the mean survival time of the animals in each group is determined, so long as at least 65% of the animals were still living on day 5 of the experiment. The average survival time is determined exclusively for animals dying during the experiment. Long-term survivors (LTS) are not taken into account in this calculation and are specified separately.
From the mean survival time (MST) of the […] group and of the control group (MSTc), the antitumoral activity (T/C) for each substance concentration is determined in per cent of the untreated control from the following formula: [formula]
The dose which causes the greatest antitumoral effect (optimal dosage) and in each case one dose step above and below this dose are collated in Table 1. Animals which are still living on day 60 of the experiment are listed separately as "long-term survivors".

L1210 leukemia cells = experiment: Colonization by L1210 leukemia cells in soft agar (cytostatic activity in vitro); format: cell-based, mouse; conditions: L1210 colony formation in soft agar, 7 days
Description: The cytostatic activity of the compounds according to the invention is determined on L1210 leukemia cells of the mouse. In detail, the following test systems were used:
a) Colonization by L1210 leukemia cells in soft agar
In this test cytostatically active substances cause the number of colonies observed to be reduced compared to an untreated control. In detail, the test is carried out as follows:
500 leukemia cells per plate are incubated for 1 hour at 37° C. with different concentrations of the test substance. The cells are subsequently washed twice with McCoy 5A medium and finally poured out into petri dishes after adding 0.3% of agar. Controls are incubated only with fresh medium. Instead of incubating for one hour, different concentrations and test substances are in many cases mixed with the upper agar layer in order to thus achieve continuous exposition of the cells over the entire incubation time. After solidification of the agar, the plates are incubated in an incubator for 7 days at 37° C. (5% by volume of CO2, 95% relative atmospheric humidity). The number of colonies produced with a diameter of more than 60 μm is subsequently counted. The results are given as the number of colonies in the treated agar plate, in per cent of the untreated control. From the dose-action curve thus attained, the IC50 is determined as a measure of the activity of the substance.

Solubility in water = format: physicochemical
NMRI mice = experiment: Determination of the acute toxicity; format: in vivo, mouse; conditions: 1 × i.p., survival on day 14
Description: b) Determination of the acute toxicity
In order to determine the acute toxicity, NMRI mice are injected intraperitoneally on day 0 with various doses of a test substance, dissolved in 0.5 ml of 5% glucose solution. Control groups receive only 0.5 ml of 5% strength glucose solution. 5 mice are used per concentration of the test substance. On day 14, the number of surviving mice is determined, and the LD5, LD50 and LD95 are determined from this according to the Lichtfield Wilcoxon method.

[1] = tested on: tumor cells which are resistant towards cis-platin; experiment: Cross resistance to cis-diamminedichloroplatinum(II) in vitro / activity in cisplatin-resistant tumor cells; format: cell-based; conditions: in words
[2] = treatment program 3 × i.p./i.p.
[3] = treatment program 5 × i.p./i.p.
[4] = treatment program 2 × i.p./i.p.

Compound	optimum Dose (greatest antitumoral effect), L1210 (L1210 leukemia; [2])	T/C % L1210 (at optimum dose) (L1210 leukemia; [2]) [%]	IC50 (L1210 leukemia cells) [µg/mL]	Solubility in water (Solubility in water) [mg/mL]	LD50 (NMRI mice) [mg/kg]	also measured
N.N.[Cl][Pt][Cl] [Cisplatin, cis-diamminedichloroplatinum (II), reference compound]	4	157	0.04			
COCC(C)(CN)CN.[Cl][Pt][Cl] [Compound 11, N,N'-(2-methoxymethyl-2-methyl-1,3-propanediamine)dichloro-platinum(II)]			1.4	3		
CCC(CN)(CN)COC.O=C([O-])C1(C(=O)[O-])CCC1.[Pt+2] [Compound 32, N,N'-(2-ethyl-2-methyloxymethyl-1,3-propanediamine)platinum(II) 1,1-cyclobutanedicarboxylate]			3.6	70	437	T/C % L1210 (at optimum dose) (L1210 leukemia; [3]): 194%
CCC(CN)(CN)COC.O=C([O-])CC(=O)[O-].[Pt+2] [corresponding malonate derivative]						cross resistance in vitro to cis-diamminedichloroplatinum(II) [1]: only partially cross resistant; cytostatic activity in the "in vivo" test using the L1210 tumor cell line (L1210 leukemia): high cytostatic activity
COCC(O)COCC(C)(CN)CN.[Cl][Pt][Cl] (stereo not drawn) [Compound 14, N,N'-(2-(2'-hydroxy-3'-methoxypropyloxymethyl)-2-methyl-1,3-propanediamine)dichloroplatinum(II)]	4	168	0.75	16	57.1	
COCC(C)(CN)CN.O=C([O-])C1(C(=O)[O-])CCC1.[Pt+2] [Compound 31, N,N'-(2-methyloxymethyl-2-methyl-1,3-propanediamine)platinum(II) 1,1-cyclobutanedicarboxylate]			2.6	15	250	optimum Dose (greatest antitumoral effect), L1210 (L1210 leukemia; [4]): 112; LTS (Longterm survivor), L1210 (L1210 leukemia; treatment program 2 × i.p./i.p., optimum dose, animals living on day 60): 3/6; T/C % L1210 (at optimum dose) (L1210 leukemia; [4]): 226%
CC(CN)(CN)COCC(O)CO.[Cl][Pt][Cl] (stereo not drawn) [Compound 13, N,N'-(2-(2',3'-dihydroxypropyloxymethyl)-2-methyl-1,3-propanediamine)dichloroplatinum(II)]			1.25	25	57.3	optimum Dose (greatest antitumoral effect), L1210 (L1210 leukemia; [3]): 8; T/C % L1210 (at optimum dose) (L1210 leukemia; [3]): 156%
CC(CN)(CN)CO[C@@H]1CC[C@H](O)[C@@H](CO)O1.[Cl][Pt][Cl] [Compound 15, N,N'-(2-(2',3'-didesoxy-alpha-D-erythrohexopyranosyloxy-methyl)-2-methyl-1,3-propanediamine)dichloroplatinum(II)]			2.9	17	1 to 5	
COCC(C)(CN)CN.O=C([O-])CC(=O)[O-].[Pt+2] [Compound 30, N,N'-(2-methyloxymethyl-2-methyl-1,3-propanediamine)platinum(II) malonate]			1.4			
CCC(CN)(CN)COC.[Cl][Pt][Cl] [Compound 12, N,N'-(2-ethyl-2-methoxymethyl-1,3-propanediamine)dichloro-platinum(II)]	3	227	0.5		19	cross resistance in vitro to cis-diamminedichloroplatinum(II) [1]: only partially cross resistant; cytostatic activity in the "in vivo" test using the L1210 tumor cell line (L1210 leukemia): high cytostatic activity
CC(=O)NC1(CO)C[NH][Pt]([Cl])([Cl])[NH]C1 [Compound 17, N,N'-(2-acetamido-2-hydroxymethyl-1,3-propanediamine)di-chloroplatinum(II)]	30	113	1.1	10	50 to 100	

— patent US5091521A, “Cis-platinum complexes, a process for the preparation thereof, and pharmaceuticals containing these compounds” (priority 1986, dated 1992)
